Measured values as given in patent publication US20130065757A1, “CHEMICAL COMPOUNDS” (Syngenta Limited, priority 2010, published 2013).

Key:
Format in all cases: in vivo
[1] = system: Solanum nigrum (SOLNI); experiment: Post-emergence biological efficacy, glasshouse pot test; settings: 312 h, 1,000 g/ha, post-emergence (sprayed after 8 days), evaluated after 13 days, 100=total damage, 0=no damage, read-out: Percentage damage caused to weed species, post-emergence, SOLNI
Description: (§1) Seeds of Alopecurus myosuroides (ALOMY), Setaria faberi (SETFA), Echinochloa crus-galli (ECHCG), Solanum nigrum (SOLNI), Amaranthus retroflexus (AMARE) and Ipomoea hederaceae (IPOHE) were sown in standard soil in pots. After cultivation for 8 days under controlled conditions in a glasshouse (at 24/16° C., day/night; 14 hours light; 65% humidity), the plants were sprayed with an aqueous spray solution derived from the formulation of the technical active ingredient in acetone/water (50:50) solution containing 0.5% Tween 20 (polyoxyethylene sorbitan monolaurate, CAS RN 9005-64-5) to give a final dose of 1000 g/ha of test compound.
(§2) The test plants were then grown on under controlled conditions in a glasshouse (at 24/16° C., day/night; 14 hours light; 65% humidity) and watered twice daily. After 13 days the test was evaluated (100=total damage to plant; 0=no damage to plant).

[2] = system: Setaria faberi (SETFA); experiment: as above; settings: 312 h, 1,000 g/ha, post-emergence (sprayed after 8 days), evaluated after 13 days, 100=total damage, 0=no damage, read-out: Percentage damage caused to weed species, post-emergence, SETFA
Description: as §1, §2

[3] = system: Alopecurus myosuroides (ALOMY); experiment: as above; settings: 312 h, 1,000 g/ha, post-emergence (sprayed after 8 days), evaluated after 13 days, 100=total damage, 0=no damage, read-out: Percentage damage caused to weed species, post-emergence, ALOMY
Description: as §1, §2

[4] = system: Amaranthus retroflexus (AMARE); experiment: as above; settings: 312 h, 1,000 g/ha, post-emergence (sprayed after 8 days), evaluated after 13 days, 100=total damage, 0=no damage, read-out: Percentage damage caused to weed species, post-emergence, AMARE
Description: as §1, §2

[5] = system: Echinochloa crus-galli (ECHCG); experiment: as above; settings: 312 h, 1,000 g/ha, post-emergence (sprayed after 8 days), evaluated after 13 days, 100=total damage, 0=no damage, read-out: Percentage damage caused to weed species, post-emergence, ECHCG
Description: as §1, §2

[6] = system: Ipomoea hederaceae (IPOHE); experiment: as above; settings: 312 h, 1,000 g/ha, post-emergence (sprayed after 8 days), evaluated after 13 days, 100=total damage, 0=no damage, read-out: Percentage damage caused to weed species, post-emergence, IPOHE
Description: as §1, §2

[7] = system: Solanum nigrum (SOLNI); experiment: Pre-emergence biological efficacy, glasshouse pot test; settings: 312 h, 1,000 g/ha, evaluated after 13 days, 100=total damage, 0=no damage, read-out: Percentage damage caused to weed species, pre-emergence, SOLNI
Description: as §1, with “one day” for “8 days”
(§3) The test plants were then grown under controlled conditions in the glasshouse (at 24/16° C., day/night; 14 hours light; 65% humidity) and watered twice daily. After 13 days the test was evaluated (100=total damage to plant; 0=no damage to plant).

[8] = system: Setaria faberi (SETFA); experiment: as above; settings: 312 h, 1,000 g/ha, evaluated after 13 days, 100=total damage, 0=no damage, read-out: Percentage damage caused to weed species, pre-emergence, SETFA
Description: as §1, with “one day” for “8 days”
as §3

[9] = system: Alopecurus myosuroides (ALOMY); experiment: as above; settings: 312 h, 1,000 g/ha, evaluated after 13 days, 100=total damage, 0=no damage, read-out: Percentage damage caused to weed species, pre-emergence, ALOMY
Description: as §1, with “one day” for “8 days”
as §3

[10] = system: Amaranthus retroflexus (AMARE); experiment: as above; settings: 312 h, 1,000 g/ha, evaluated after 13 days, 100=total damage, 0=no damage, read-out: Percentage damage caused to weed species, pre-emergence, AMARE
Description: as §1, with “one day” for “8 days”
as §3

[11] = system: Echinochloa crus-galli (ECHCG); experiment: as above; settings: 312 h, 1,000 g/ha, evaluated after 13 days, 100=total damage, 0=no damage, read-out: Percentage damage caused to weed species, pre-emergence, ECHCG
Description: as §1, with “one day” for “8 days”
as §3

[12] = system: Ipomoea hederaceae (IPOHE); experiment: as above; settings: 312 h, 1,000 g/ha, evaluated after 13 days, 100=total damage, 0=no damage, read-out: Percentage damage caused to weed species, pre-emergence, IPOHE
Description: as §1, with “one day” for “8 days”
as §3

Compound | pest or weed control at 1000 g/ha [1] | pest or weed control at 1000 g/ha [2] | pest or weed control at 1000 g/ha [3] | pest or weed control at 1000 g/ha [4] | pest or weed control at 1000 g/ha [5] | pest or weed control at 1000 g/ha [6] | pest or weed control at 1000 g/ha [7] | pest or weed control at 1000 g/ha [8] | pest or weed control at 1000 g/ha [9] | pest or weed control at 1000 g/ha [10] | pest or weed control at 1000 g/ha [11] | pest or weed control at 1000 g/ha [12]
C=CCc1c(N)cc(Cl)nc1C(=O)OC [Compound 2-7, 4-amino-6-chloro-3-(prop-2-enyl)-pyridine-2-carboxylic acid methyl ester] | 90% | 30% | 20% | 90% | 10% | 50% | 90% | 40% | 30% | 90% | 40% | 70%
C=C(C)Cc1c(N)cc(Cl)nc1C(=O)OC [Compound 2-8, 4-amino-6-chloro-3-(2-methyl-prop-2-enyl)-pyridine-2-carboxylic acid methyl ester] | 80% | 10% | 10% | 70% | 0% | 50% | 80% | 10% | 10% | 40% | 0% | 80%
C=Cc1c(C(=O)OC)nc(Cl)c(F)c1N [Compound 2-12, 4-amino-6-chloro-3-ethenyl-5-fluoro-pyridine-2-carboxylic acid methyl ester] | 100% | 90% | 80% | 100% | 80% | 80% | 100% | 90% | 100% | 100% | 100% | 100%
C=Cc1c(C(=O)OC)nc(Cl)c(Cl)c1N [Compound 2-20, 4-amino-5,6-dichloro-3-ethenyl-1-pyridine-2-carboxylic acid methyl ester] | 100% | 90% | 90% | 100% | 90% | 100% | 100% | 90% | 90% | 100% | 90% | 100%
COC(=O)c1nc(Cl)cc(N)c1C=C(C)C [Compound 2-165, 4-Amino-6-chloro-3-(2-methylprop-1-enyl)-pyridine-2-carboxylic acid methyl ester] | 90% | 90% | 70% | 100% | 70% | 70% | 100% | 90% | 80% | 100% | 70% | 90%
COC(=O)c1nc(Cl)cc(N)c1-c1ccc(Cl)cc1 [Compound 2-168, 4-Amino-6-chloro-3-(4-chlorophenyl)-pyridine-2-carboxylic acid methyl ester] | 80% | 20% | 20% | 100% | 10% | 70% | 80% | 0% | 30% | 90% | 20% | 80%
